According to patent publication US9834558B2, “Substituted bridged urea analogs as sirtuin modulators” (GLAXOSMITHKLINE LLC, priority 2013, dated 2017):
Where two headings read alike, the source gives them in different places.

Target: T1, SIRT1 (Homo sapiens, UniProt Q96EB6)
T1 sequence (Q96EB6 1-747): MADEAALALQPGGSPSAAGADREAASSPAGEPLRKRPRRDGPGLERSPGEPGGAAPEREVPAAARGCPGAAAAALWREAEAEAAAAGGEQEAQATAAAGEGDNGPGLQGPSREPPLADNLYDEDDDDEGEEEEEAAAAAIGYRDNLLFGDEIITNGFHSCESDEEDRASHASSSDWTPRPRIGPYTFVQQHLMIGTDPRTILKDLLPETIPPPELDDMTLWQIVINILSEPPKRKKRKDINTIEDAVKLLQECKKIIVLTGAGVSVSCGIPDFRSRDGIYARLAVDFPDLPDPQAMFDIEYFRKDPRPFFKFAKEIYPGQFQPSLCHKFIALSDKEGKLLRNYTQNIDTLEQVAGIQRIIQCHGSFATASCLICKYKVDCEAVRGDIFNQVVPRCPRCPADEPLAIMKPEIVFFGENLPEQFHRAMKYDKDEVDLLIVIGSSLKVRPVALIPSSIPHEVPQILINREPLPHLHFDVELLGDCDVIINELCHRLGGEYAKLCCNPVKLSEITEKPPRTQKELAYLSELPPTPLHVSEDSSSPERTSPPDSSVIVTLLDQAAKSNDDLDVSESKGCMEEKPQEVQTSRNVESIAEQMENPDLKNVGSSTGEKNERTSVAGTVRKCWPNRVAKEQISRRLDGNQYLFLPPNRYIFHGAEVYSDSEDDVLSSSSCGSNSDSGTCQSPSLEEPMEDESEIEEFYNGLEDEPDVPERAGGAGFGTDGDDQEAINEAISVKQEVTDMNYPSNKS
Assay: Trp mass spectrometry assay of SIRT1 activation
Assay type: biochemical
Conditions: for TRP Activity (EC1.5): EC1.5 = concentration that results in 150% activation of SIRT1
Outline: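 Activation read-out: mass-spec measurement of O-acetyl-ADP-ribose or deacetylated Trp peptide versus compound-free controls, giving EC1.5 and Percent Maximum Activation. Reactions ran 25 min at 25 °C, pH 7.5, with 120 μM βNAD+, 0.5 μM acetylated p53-derived peptide and 10 nM His-tagged SIRT1.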

[1] = concentration giving 150% activation of SIRT1, Trp peptide substrate
[2] = Trp peptide assay, maximum activity relative to control (100%), read-out: TRP MAX RESP (percent maximum fold activation)
[3] = Trp mass spectrometry assay, concentration of test compound giving 150% activation of SIRT1
[4] = Trp mass spectrometry assay, EC1.5 = concentration of test compound that results in 150% activation of SIRT1
[5] = Trp peptide substrate, concentration giving 150% activation of SIRT1

Compound | TRP Activity (EC1.5) (Trp peptide assay) | Emax [2] [%] | also measured
Cc1cncc(NC(=O)N2c3nc(-c4cccc(Cl)c4)ccc3N3C[C@@H](O)[C@H]2C3)c1 [Example 676] | – | – | Tryp AVG EC1.5 (μM) [1]: A (A (EC1.5<1 μM))
Cc1ccc(-c2ccc3c(n2)N(C(=O)NC2CC(F)(F)C2)[C@H]2CCN3C2)cn1 [(9S)-N-(3,3-difluorocyclobutyl)-5-(6-methylpyridin-3-yl)-1,6,8-triazatricyclo[7.2.1.0 {2,7}]dodeca-2(7),3,5-triene-8-carboxamide] | B (B (EC1.5 1-25 μM)) | > 150 | –
O=C(Nc1ccncn1)N1c2nc(-c3cccc(Cl)c3)ccc2N2C[C@@H](O)[C@H]1C2 [Example 684] | – | – | Tryp AVG EC1.5 (μM) [1]: B (B (EC1.5 1-25 μM))
O=C(Nc1ccccn1)N1c2nc(-c3cncc(C(F)(F)F)c3)ccc2N2CCC[C@H]1C2 [Example 369] | – | – | Tryp AVG EC1.5 (μM) [3]: A (A (EC1.5<1 μM))
O=C(Nc1cccnc1)N1c2nc(-c3cnn(C4CCCC4)c3)ccc2N2CC[C@H]1C2 [Example 587] | – | – | Tryp AVG EC1.5 (μM) [4]: B (B (EC1.5 1-25 μM))
O=C(Nc1cccnc1)N1c2nc(-c3cncc(Cl)c3)ccc2N2CCC1CC2 [Example 544] | – | – | Tryp AVG EC1.5 (μM) [4]: B (B (EC1.5 1-25 μM))
O=C(O[C@@H]1CN2C[C@H]1N(C(=O)Nc1ccccn1)c1nc(-c3cccc(C(F)(F)F)c3)ccc12)c1ccccc1 [Example 603] | – | – | Tryp AVG EC1.5 (μM) [4]: C (C (EC1.5>25 μM))
O=C(Nc1ccncc1)N1c2nc(N3CCCC(C(F)(F)F)C3)ccc2N2CCC[C@H]1C2 (some centres unmarked) [Example 360] | – | – | Tryp AVG EC1.5 (μM) [3]: A (A (EC1.5<1 μM))
O=C(Nc1nc2ccccc2s1)N1c2nc(-c3cccc(C(F)(F)F)c3)ccc2N2CC[C@H]1C2 [Example 90] | – | – | Tryp AVG EC1.5 (μM) [5]: A (A (EC1.5<1 μM))
O=C(Nc1ccccn1)N1c2nc(-c3cncc(Cl)c3)ccc2N2CCC[C@H]1C2 [Example 406] | – | – | Tryp AVG EC1.5 (μM) [3]: A (A (EC1.5<1 μM))
CCC(=O)c1cccc(NC(=O)N2c3nc(-c4cccc(C(F)(F)F)c4)ccc3N3CC[C@H]2C3)c1 [Example 714] | – | – | Tryp AVG EC1.5 (μM) [1]: A (A (EC1.5<1 μM))
O=C(Nc1cccnc1)N1c2nc(-c3cccc(Cl)c3)ccc2N2CCC[C@H]1C2 [Example 407] | – | – | Tryp AVG EC1.5 (μM) [3]: A (A (EC1.5<1 μM))
CC(C)(C)OC(=O)NCCCc1ccc(NC(=O)N2c3nc(-c4cccc(C(F)(F)F)c4)ccc3N3CC[C@H]2C3)cc1-c1cnco1 [Example 750] | – | – | Tryp AVG EC1.5 (μM) [1]: A (A (EC1.5<1 μM))
Cc1cc(-c2ccc3c(n2)N(C(=O)N2CCCCC2)[C@H]2CCN3C2)ccn1 [(9S)-5-(2-methylpyridin-4-yl)-8-[(piperidin-1-yl)carbonyl]-1,6,8-triazatricyclo[7.2.1.0 {2,7}]dodeca-2,4,6-triene] | C (C (EC1.5>25 μM)) | < 150 | –
CS(=O)(=O)c1cncc(-c2ccc3c(n2)N(C(=O)Nc2ccncn2)[C@H]2CCCN3C2)c1 [Example 379] | – | – | Tryp AVG EC1.5 (μM) [3]: A (A (EC1.5<1 μM))
O=C(Nc1cccnc1)N1c2nc(-c3cncc(F)c3)ccc2N2CCC1CC2 [Example 572] | – | – | Tryp AVG EC1.5 (μM) [4]: B (B (EC1.5 1-25 μM))
Cc1cc(-c2ccc3c(n2)N(C(=O)Nc2cccnc2)[C@H]2CCN3C2)ccn1 [Example 498] | – | – | Tryp AVG EC1.5 (μM) [4]: A (A (EC1.5<1 μM))
Cc1ccc(-c2ccc3c(n2)N(C(=O)NC2CCN(C)CC2)[C@H]2CCN3C2)cn1 [(9S)-N-(1-methylpiperidin-4-yl)-5-(6-methylpyridin-3-yl)-1,6,8-triazatricyclo[7.2.1.0^{2,7}]dodeca-2(7),3,5-triene-8-carboxamide] | C (C (EC1.5>25 μM)) | < 150 | –
COc1ncc(-c2ccc3c(n2)N(C(=O)Nc2cnccn2)[C@H]2CCN3C2)c(OC)n1 [Example 398] | – | – | Tryp AVG EC1.5 (μM) [3]: B (B (EC1.5 1-25 μM))
O=C(Nc1ccc(-n2cncn2)cc1)N1c2nc(-c3cncc(C(F)(F)F)c3)ccc2N2CC[C@H]1C2 [Example 580] | – | – | Tryp AVG EC1.5 (μM) [4]: A (A (EC1.5<1 μM)); Emax (Trp mass spectrometry assay, percent maximum fold activation of SIRT1, read-out: Tryp % Fold Act): > 150%
O=C(Nc1cnccn1)N1c2nc(-c3cncc(Cl)c3)ccc2N2CCC1CC2 [Example 550] | – | – | Tryp AVG EC1.5 (μM) [4]: B (B (EC1.5 1-25 μM))
O=C(Nc1nnc(-c2ccccc2)s1)N1c2nc(-c3cccc(C(F)(F)F)c3)ccc2N2CC[C@H]1C2 [Example 648] | – | – | Tryp AVG EC1.5 (μM) [1]: A (A (EC1.5<1 μM))
Cn1ncc2cc(NC(=O)N3c4nc(-c5cccc(C(F)(F)F)c5)ccc4N4CC[C@H]3C4)ccc21 [Example 87] | – | – | Tryp AVG EC1.5 (μM) [5]: A (A (EC1.5<1 μM))
O=C(Nc1ccccn1)N1c2nc(-c3cncc(C(F)(F)F)c3)ccc2N2C[C@@H](O)[C@H]1C2 [Example 694] | – | – | Tryp AVG EC1.5 (μM) [1]: A (A (EC1.5<1 μM))

The next lines start with results.

TRP Activity (EC1.5) (Trp peptide assay) | Emax [2] [%] | Compound | also measured
B (B (EC1.5 1-25 μM)) | > 150 | CCc1cnc(NC(=O)N2c3nc(-c4ccc(C)nc4)ccc3N3CC[C@H]2C3)cn1 [(9S)-N-(5-ethylpyrazin-2-yl)-5-(6-methylpyridin-3-yl)-1,6,8-triazatricyclo[7.2.1.0^{2,7}]dodeca-2,4,6-triene-8-carboxamide] | –
A (A (EC1.5<1 μM)) | > 150 | O=C(Nc1ccnc(OC[C@H](O)CO)n1)N1c2nc(-c3cccc(C(F)(F)F)c3)ccc2N2CC[C@H]1C2 [(9S)-N-{2-[(2R)-2,3-dihydroxypropoxy]pyrimidin-4-yl}-5-[3-(trifluoromethyl)phenyl]-1,6,8-triazatricyclo[7.2.1.0 {2,7}]dodeca-2(7),3,5-triene-8-carboxamide] | –
C (C (EC1.5>25 μM)) | < 150 | N#Cc1ccc2c(n1)N(C(=O)Nc1cnccn1)[C@H]1CCN2C1 [(9S)-5-cyano-N-(pyrazin-2-yl)-1,6,8-triazatricyclo[7.2.1.0 {2,7}]dodeca-2(7),3,5-triene-8-carboxamide] | –
B (B (EC1.5 1-25 μM)) | > 150 | Cc1ccnc(NC(=O)N2c3nc(-c4ccnc(C)c4)ccc3N3CC[C@H]2C3)c1 [(9S)-N-(4-methylpyridin-2-yl)-5-(2-methylpyridin-4-yl)-1,6,8-triazatricyclo[7.2.1.0^2,7]dodeca-2,4,6-triene-8-carboxamide] | –
B (B (EC1.5 1-25 μM)) | > 150 | Cc1cc(-c2ccc3c(n2)N(C(=O)Nc2cncc(C)n2)[C@H]2CCCN3C2)ccn1 [(9S)-N-(6-methylpyrazin-2-yl)-5-(2-methylpyridin-4-yl)-1,6,8-triazatricyclo[7.3.1.0 {2,7}]trideca-2(7),3,5-triene-8-carboxamide] | –
B (B (EC1.5 1-25 μM)) | > 150 | Cc1ccc(-c2cc(C)c3c(n2)N(C(=O)Nc2ccccn2)[C@H]2CCN3C2)cn1 [(9S)-3-methyl-5-(6-methylpyridin-3-yl)-N-(pyridin-2-yl)-1,6,8-triazatricyclo[7.2.1.0^{2,7}]dodeca-2,4,6-triene-8-carboxamide] | –
C (C (EC1.5>25 μM)) | < 150 | C[C@H]1CNCCN1c1ccc2c(n1)N(C(=O)Nc1cnccn1)[C@H]1CCN2C1 [(9S)-5-[(2S)-2-methylpiperazin-1-yl]-N-(pyrazin-2-yl)-1,6,8-triazatricyclo[7.2.1.0 {2,7}]dodeca-2,4,6-triene-8-carboxamide] | –
B (B (EC1.5 1-25 μM)) | > 150 | O=C(Nc1cnccn1)N1c2nc(-c3ccc(CO)nc3)ccc2N2CC[C@H]1C2 [(9S)-5-[6-(hydroxymethyl)pyridin-3-yl]-N-(pyrazin-2-yl)-1,6,8-triazatricyclo[7.2.1.0 {2,7}]dodeca-2(7),3,5-triene-8-carboxamide] | –
B (B (EC1.5 1-25 μM)) | > 150 | Cc1ccc(-c2ccc3c(n2)N(C(=O)Nc2ccnc(O[C@H]4CCOC4)n2)[C@H]2CCN3C2)cn1 [(9S)-5-(6-methylpyridin-3-yl)-N-{2-[(3S)-oxolan-3-yloxy]pyrimidin-4-yl}-1,6,8-triazatricyclo[7.2.1.0 {2,7}]dodeca-2,4,6-triene-8-carboxamide] | –
A (A (EC1.5<1 μM)) | > 150 | CCc1cnc(NC(=O)N2c3nc(-c4ccnc(C)c4)ccc3N3CC[C@H]2C3)cn1 [(9S)-N-(5-ethylpyrazin-2-yl)-5-(2-methylpyridin-4-yl)-1,6,8-triazatricyclo[7.2.1.0 {2,7}]dodeca-2(7),3,5-triene-8-carboxamide] | –
B (B (EC1.5 1-25 μM)) | > 150 | Cc1cc(-c2ccc3c(n2)N(C(=O)Nc2nccc(C)n2)[C@H]2CCN3C2)ccn1 [(9S)-5-(2-methylpyridin-4-yl)-N-(4-methylpyrimidin-2-yl)-1,6,8-triazatricyclo[7.2.1.0^{2,7}]dodeca-2,4,6-triene-8-carboxamide] | –
